Patent US20220160716A1 (SORBONNE UNIVERSITE, priority 2019, published 2022)
pIC50: −log10 of the molar value.

Tests used:
[1] = target: T1, CDK9/T (Homo sapiens, UniProt P50750); test: Protein kinase catalytic activity assay, CDK9/cyclin T; format: biochemical; conditions: activator cyclin T; read-out: IC50 of protein kinases, CDK9/T
T1 construct: made in house

[2] = target: CK1; test: Protein kinase catalytic activity assay, CK1; format: biochemical; conditions: read-out: IC50 of protein kinases, CK1
[3] = target: T2, CLK1 (Homo sapiens, UniProt P49759); test: Protein kinase catalytic activity assay, CLK1; format: biochemical; conditions: read-out: IC50 of protein kinases, CLK1
T2 construct: made in house

[4] = target: T3, DYRK1A (Homo sapiens, UniProt Q13627); test: Protein kinase catalytic activity assay, DYRK1A; format: biochemical; conditions: read-out: IC50 of protein kinases, DYRK1A
T3 construct: made in house

[5] = target: GSK3 (Homo sapiens, UniProt P49841); test: Protein kinase catalytic activity assay, GSK3; format: biochemical; conditions: read-out: IC50 of protein kinases, GSK3
[6] = target: T4, CDK2/A (Homo sapiens, UniProt P24941); test: Protein kinase catalytic activity assay, CDK2/cyclin A; format: biochemical; conditions: activator cyclin A; read-out: IC50 of protein kinases, CDK2/A
T4 construct: made in house

[7] = target: T5, CDK5/p25 (Homo sapiens, UniProt Q00535); format: biochemical; conditions: activator p25; read-out: IC50 of protein kinases, CDK5/p25
T5 construct: made in house

[8] = target: ABCB4-I541F (Homo sapiens, UniProt P21439, I541F); test: Maturation of ABCB4-I541F by immunoblot in HEK cells; format: cell-based; parameters: The subcloning of wild type (WT) ABCB4, isoform A (NM_000443.3), into pcDNA3 vector has been described; expressed in transfected cells; host or cells: HEK-293 (immunoblot, PC secretion); conditions: HEK cells, 100 μM, 16 hours, immunoblot
Procedure: (§1) Cyclosporin A (CsA) was from Santa Cruz Biotechnologies (Dallas, Tex.). […] Each compound was solubilized in dimethylsulfoxide (DMSO) as 1000× concentrated stock solutions in order to treat cells with 5 μM to 100 μM final concentrations, using DMSO as control vehicle at the same dilution (0.1% DMSO for all conditions). The cells were treated 24 hours post-transfection with these drugs during 16 hours, except for the viability assays for which cells were treated during three days. After drug treatment, cells were used for immunoanalyses, cell viability assays or PC secretion assays.
Western blots and indirect immunofluorescence were performed as previously described (2, 12). […] Signals were detected with ECL prime western blotting detection reagent (GE Healthcare, Velizy-Villacoublay, France) and quantified in the linear range of detection using ImageJ 1.50i software (U.S. National Institutes of Health, Bethesda, Md.).

[9] = tested on: HEK cells; test: Cell viability MTT assay in HEK cells; conditions: three days
Procedure: as §1
Cell viability was assessed by the conversion of MTT (3-[4,5-dimethylthiazol-2-yl]-2,5 diphenyl tetrazolium bromide) into formazan crystals by living cells, as described (14). […] These conditions were optimized in order to maintain the absorbance at 540 nm of the blanks below 0.1 OD unit (negative controls) and the absorbance at 540 nm for untreated cells between 1.0 and 1.3 OD units (positive controls). Then culture media were gently washed out, cells were lysed in 100 μL of pure DMSO and absorbance at 540 nm was measured using a multiplate cytofluorimeter SpectraFluor from Tecan (Männedorf, Switzerland). Cell viability was calculated for each triplicate after background subtraction and expressed as percentage of the mean for cells treated with vehicle only.

T1 sequence (P50750 whole entry, species assumed): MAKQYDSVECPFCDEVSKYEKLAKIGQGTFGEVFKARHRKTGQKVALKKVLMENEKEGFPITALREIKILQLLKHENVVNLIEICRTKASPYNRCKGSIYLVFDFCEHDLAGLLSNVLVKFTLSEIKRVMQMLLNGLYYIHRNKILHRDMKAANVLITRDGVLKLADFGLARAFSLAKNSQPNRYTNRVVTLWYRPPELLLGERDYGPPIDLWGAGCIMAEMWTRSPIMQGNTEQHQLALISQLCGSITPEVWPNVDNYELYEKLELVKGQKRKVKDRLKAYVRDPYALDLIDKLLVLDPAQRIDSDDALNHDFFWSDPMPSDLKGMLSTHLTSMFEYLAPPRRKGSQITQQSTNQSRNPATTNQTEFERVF
T1 sequence (O60563 whole entry partner, species assumed): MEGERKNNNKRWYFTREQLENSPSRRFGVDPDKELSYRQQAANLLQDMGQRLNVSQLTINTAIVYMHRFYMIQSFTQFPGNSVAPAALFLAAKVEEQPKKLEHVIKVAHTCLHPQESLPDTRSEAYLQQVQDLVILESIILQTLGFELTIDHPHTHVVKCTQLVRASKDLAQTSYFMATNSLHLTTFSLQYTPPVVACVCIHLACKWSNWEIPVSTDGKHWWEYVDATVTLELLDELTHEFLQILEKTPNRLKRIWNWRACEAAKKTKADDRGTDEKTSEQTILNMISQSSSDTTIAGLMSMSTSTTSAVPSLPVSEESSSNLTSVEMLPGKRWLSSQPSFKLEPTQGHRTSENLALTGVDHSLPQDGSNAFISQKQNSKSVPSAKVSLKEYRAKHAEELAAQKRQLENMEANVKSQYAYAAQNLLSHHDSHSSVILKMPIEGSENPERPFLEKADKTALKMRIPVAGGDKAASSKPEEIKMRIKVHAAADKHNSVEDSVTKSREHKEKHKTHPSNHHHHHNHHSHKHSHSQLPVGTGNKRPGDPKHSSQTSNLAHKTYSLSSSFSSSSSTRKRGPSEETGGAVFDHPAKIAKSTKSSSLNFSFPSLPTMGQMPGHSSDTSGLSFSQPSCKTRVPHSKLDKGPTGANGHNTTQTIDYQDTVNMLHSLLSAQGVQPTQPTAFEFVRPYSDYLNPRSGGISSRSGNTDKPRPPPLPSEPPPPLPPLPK
T5 sequence (Q00535 whole entry, species assumed): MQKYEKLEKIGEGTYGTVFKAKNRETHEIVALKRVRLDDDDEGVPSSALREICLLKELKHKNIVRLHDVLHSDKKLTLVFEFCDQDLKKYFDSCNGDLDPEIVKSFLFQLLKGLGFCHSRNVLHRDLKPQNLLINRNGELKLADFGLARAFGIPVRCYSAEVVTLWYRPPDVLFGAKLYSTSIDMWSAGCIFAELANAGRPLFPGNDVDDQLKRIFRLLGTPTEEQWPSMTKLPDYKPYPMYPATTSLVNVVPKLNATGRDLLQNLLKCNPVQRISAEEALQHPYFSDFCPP
T5 sequence (Q15078 99-307 partner limits assumed, species assumed): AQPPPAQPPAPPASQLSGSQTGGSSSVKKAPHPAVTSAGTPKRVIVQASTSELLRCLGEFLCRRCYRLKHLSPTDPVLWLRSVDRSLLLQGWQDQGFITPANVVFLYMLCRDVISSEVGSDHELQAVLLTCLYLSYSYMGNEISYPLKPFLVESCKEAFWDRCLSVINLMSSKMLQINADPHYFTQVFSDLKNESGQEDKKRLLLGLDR
ABCB4-I541F, sequence (P21439 1-1279 isoform P21439-2 I541F): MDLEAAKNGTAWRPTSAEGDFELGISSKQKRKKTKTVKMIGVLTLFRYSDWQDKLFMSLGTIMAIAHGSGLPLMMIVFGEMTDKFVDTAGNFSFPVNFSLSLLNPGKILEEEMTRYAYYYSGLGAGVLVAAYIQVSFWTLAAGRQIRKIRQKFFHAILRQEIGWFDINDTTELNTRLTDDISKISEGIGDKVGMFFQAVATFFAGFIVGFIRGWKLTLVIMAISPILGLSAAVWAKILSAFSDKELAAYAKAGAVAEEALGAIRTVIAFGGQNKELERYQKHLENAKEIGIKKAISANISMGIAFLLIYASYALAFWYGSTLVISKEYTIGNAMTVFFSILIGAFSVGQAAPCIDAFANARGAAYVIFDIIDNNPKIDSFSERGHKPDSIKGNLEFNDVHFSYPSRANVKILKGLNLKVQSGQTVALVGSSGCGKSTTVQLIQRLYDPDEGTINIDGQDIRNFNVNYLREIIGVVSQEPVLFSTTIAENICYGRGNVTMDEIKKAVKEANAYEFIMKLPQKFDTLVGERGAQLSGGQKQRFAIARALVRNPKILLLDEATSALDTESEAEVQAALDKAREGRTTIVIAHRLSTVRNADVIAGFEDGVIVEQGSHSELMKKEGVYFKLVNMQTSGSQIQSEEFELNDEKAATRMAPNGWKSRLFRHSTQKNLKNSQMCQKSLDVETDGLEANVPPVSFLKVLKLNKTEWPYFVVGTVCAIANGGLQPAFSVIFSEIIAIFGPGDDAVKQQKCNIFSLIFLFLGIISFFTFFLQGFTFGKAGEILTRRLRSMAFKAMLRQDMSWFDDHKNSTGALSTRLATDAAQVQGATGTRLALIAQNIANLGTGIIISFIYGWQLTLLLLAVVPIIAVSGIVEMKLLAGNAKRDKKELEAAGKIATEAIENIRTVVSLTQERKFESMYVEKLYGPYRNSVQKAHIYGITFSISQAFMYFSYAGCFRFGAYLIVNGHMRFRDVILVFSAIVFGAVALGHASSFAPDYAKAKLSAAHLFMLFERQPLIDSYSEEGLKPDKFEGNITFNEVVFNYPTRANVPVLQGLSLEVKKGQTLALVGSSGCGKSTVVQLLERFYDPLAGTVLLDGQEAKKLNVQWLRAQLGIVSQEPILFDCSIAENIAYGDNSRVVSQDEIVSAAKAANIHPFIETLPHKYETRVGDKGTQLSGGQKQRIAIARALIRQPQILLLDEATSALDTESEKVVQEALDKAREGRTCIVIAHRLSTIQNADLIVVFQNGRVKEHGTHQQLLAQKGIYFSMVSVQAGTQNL
T2 sequence (P49759 whole entry): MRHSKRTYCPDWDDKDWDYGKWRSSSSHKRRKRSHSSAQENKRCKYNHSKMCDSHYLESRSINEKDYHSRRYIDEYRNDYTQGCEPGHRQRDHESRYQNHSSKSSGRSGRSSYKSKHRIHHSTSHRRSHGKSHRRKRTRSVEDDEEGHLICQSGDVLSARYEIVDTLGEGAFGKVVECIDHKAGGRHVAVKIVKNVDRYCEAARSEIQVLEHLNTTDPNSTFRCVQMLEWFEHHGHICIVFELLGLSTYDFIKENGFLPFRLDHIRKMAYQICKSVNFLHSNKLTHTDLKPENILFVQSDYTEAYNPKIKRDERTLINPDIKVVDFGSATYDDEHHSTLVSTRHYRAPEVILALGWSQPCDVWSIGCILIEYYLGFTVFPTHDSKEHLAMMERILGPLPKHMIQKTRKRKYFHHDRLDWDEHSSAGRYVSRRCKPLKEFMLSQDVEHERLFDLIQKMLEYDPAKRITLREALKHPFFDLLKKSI
GSK3, sequence (P49841 whole entry): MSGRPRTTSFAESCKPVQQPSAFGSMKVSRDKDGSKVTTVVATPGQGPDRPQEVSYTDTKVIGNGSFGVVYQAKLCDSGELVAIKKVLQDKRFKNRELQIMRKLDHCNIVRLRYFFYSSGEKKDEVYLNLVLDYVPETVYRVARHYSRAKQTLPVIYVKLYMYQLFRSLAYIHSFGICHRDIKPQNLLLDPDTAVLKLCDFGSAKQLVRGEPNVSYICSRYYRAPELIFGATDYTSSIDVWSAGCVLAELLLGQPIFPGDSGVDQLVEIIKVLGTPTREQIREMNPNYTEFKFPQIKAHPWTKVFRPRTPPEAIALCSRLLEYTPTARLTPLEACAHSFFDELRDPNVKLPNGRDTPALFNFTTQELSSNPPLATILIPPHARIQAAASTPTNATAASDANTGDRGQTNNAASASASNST

CC[C@@H](Nc1nc(NCc2ccccc2)c2ncn(C(C)C)c2n1)C(=O)O [M3, reference compound]
pIC50 [1]: < 4.48
pIC50 [2]: < 4.48
pIC50 [3]: < 4.48
pIC50 [4]: 4.72
pIC50 [5]: < 5.00

CC(C)n1cnc2c(NCc3ccccc3)nc(N[C@@H](CO)C(=O)O)nc21 [MRT2-164]
pIC50 [1]: 4.77
pIC50 [2]: 4.55
pIC50 [3]: < 4.48
pIC50 [4]: < 5.00
pIC50 [5]: < 5.00

CC[C@@H](Nc1nc(NCc2cccc(C(F)(F)F)c2)c2ncn(C3CCCC3)c2n1)C(=O)O [MRT2-239]
pIC50 [6]: 5.10
pIC50 [7]: 4.96
pIC50 [1]: 4.70
pIC50 [2]: 5.40
pIC50 [3]: 5.05
pIC50 [4]: 4.68
pIC50 [5]: < 5.00
maturation (mature form) of ABCB4-I541F [8]: significantly increase the expression of a mature form of ABCB4-I541F

CC[C@@H](Nc1nc(NCc2ccc(F)c(F)c2)c2ncn(C3CCCC3)c2n1)C(=O)O [MRT2-241]
pIC50 [6]: 5.29
pIC50 [7]: 4.77
pIC50 [1]: 5.10
pIC50 [2]: 4.96
pIC50 [3]: 4.89
pIC50 [4]: 4.70
pIC50 [5]: < 5.00
maturation (mature form) of ABCB4-I541F [8]: significantly increase the expression of a mature form of ABCB4-I541F

CC[C@@H](Nc1nc(NCc2ccccc2)c2ncn(C3CCCC3)c2n1)C(=O)O [MRT2-245]
pIC50 [6]: 5.20
pIC50 [7]: 4.82
pIC50 [1]: 4.55
pIC50 [2]: 4.77
pIC50 [3]: 4.89
pIC50 [4]: 4.68
pIC50 [5]: < 5.00
maturation (mature form) of ABCB4-I541F [8]: significantly increase the expression of a mature form of ABCB4-I541F

CC[C@@H](Nc1nc(NCc2cccc(C(F)(F)F)c2)c2ncn(C(C)C)c2n1)C(=O)O [MRT2-249]
pIC50 [6]: 5.05
pIC50 [7]: 4.57
pIC50 [1]: < 4.48
pIC50 [2]: 5.30
pIC50 [3]: 4.64
pIC50 [4]: 5.05
pIC50 [5]: < 5.00
maturation (mature form) of ABCB4-I541F [8]: significantly increase the expression of a mature form of ABCB4-I541F

CC[C@H](CO)Nc1nc(NCc2ccccc2)c2ncn(C(C)C)c2n1 [Roscovitine, (R)-roscovitine]
cell viability ([9]; 25 μM, % of vehicle-treated cells): less than 60%
cytotoxicity ([9]; increasing concentrations): important dose-dependent cytotoxicity
